Results as given in patent US7723328B2, “Methods of facilitating cell survival using neurotrophin mimetics” (The University of North Carolina at Chapel Hill, priority 2005, dated 2010).

Test system: E17 hippocampal neurons
Test: Aβ-induced death of hippocampal neurons
Assay type: cell-based
Method: Using previously well established protocols, Aβ was preincubated for 3 days in water to allow formation of oligomers. E17 hippocampal neurons were incubated for 5 days to allow for maturation prior to addition of Aβ with test compounds.

Compound	protection against Aβ1-42-induced death (Aβ1-42 10 μM, NGF at 100 pg/ml)	loss of neurons (Aβ1-42 10 μM or 30 μM, 3 day exposure, no compound) [%]
Cn1c(=O)c2c(ncn2CC(=O)NCc2ccco2)n(C)c1=O [Compound 6]	failed to block	–
Aβ1-42: amyloid-β, preincubated for 3 days in water to allow formation of oligomers [reference compound]	–	~40
